Reference: patent publication US20210221866A1, “PROTEASE-RESISTANT LIPIDATED GLP-1 ANALOGS” (MEDIMMUNE LIMITED, priority 2015, published 2021)
Numbered stars: 1 amine (or outer) side, 2 acyl side, 3 side chain; on linkers, the order of the positions; unused ones are H or OH. Square brackets hold non-standard residues; d marks the D form. Side chains are listed from the residue outwards. Peptide text beside a SMILES is read from it. * marks the point of attachment. C18 diacid = O=C(O)CCCCCCCCCCCCCCCCC(=O)*; γGlu = O=C(O)[C@H](CCC(=O)[*:2])N[*:1]; Palmitoyl = CCCCCCCCCCCCCCCC(=O)*; αMeF = C[C@](N)(Cc1ccccc1)C(=O)O; αMeK = C[C@](N)(CCCCN)C(=O)O; Lauroyl = CCCCCCCCCCCC(=O)*; αMeS = C[C@](N)(CO)C(=O)O; AEEA = NCCOCCOCC(=O)O; Aib = CC(C)(N)C(=O)O

Assays:
[1] = test system: recombinant α-chymotrypsin; assay: Proteolytic resistance to α-chymotrypsin (% remaining intact peptide, RP-HPLC AUC); details: t = 0; 37° C., pH 7.8
Procedure: (§2) Ratio enzyme (units):peptide (μmoles) ˜1:33. […] Ratio enzyme (units):peptide (μmoles) ˜1:2.5.
(§3) 15 μL aliquots (˜15 μg initial peptide) of the peptide-enzyme mixture are periodically withdrawn (t=0, 30 mins, 1 hr, 2 hr, 4 hr, 8 hr, 24 hr) and quenched immediately by addition to an equal volume (15 μL) of 5% TFA (v/v) in 1:1 water/acetonitrile to arrest proteolytic activity. 20 μL aliquots (˜10 μg initial peptide) are analysed by LC/MS and/or analytical RP-HPLC as follows: LC/MS method: Agilent Polaris C8-A column (4.6×100 mm, 3 micron) elutes with a linear binary gradient of 10-90% MeCN (0.1% TFA v/v) in water (0.1% TFA v/v) over 30 mins at 1.5 mL min^−1 at ambient temperature with detection by both UV absorption at 210 nm and ionization using a Waters 3100 mass detector (ESI^+ mode). Peptide fragments deriving from enzymatic hydrolysis are identified by molecular weight, allowing location of the site of cleavage. Analytical RP-HPLC method: Agilent Polaris C8-A column (4.6×100 mm, 3 micron) elutes with a linear binary gradient of 10-90% MeCN (0.1% TFA v/v) in water (0.1% TFA v/v) over either 10 or 15 mins at 1.5 mL min^−1 at 40° C. with detection by UV absorption at 210 nm. Manual integration (AUC) allows estimation of remaining intact peptide over the time course of the experiment.
(§4) 25 μL aliquots (˜6 μg initial peptide) are analysed by LC/MS and/or analytical RP-HPLC as follows: LC/MS method: Agilent Polaris C8-A column (4.6×100 mm, 3 micron) elutes with a linear binary gradient of 10-90% MeCN (0.1% TFA v/v) in water (0.1% TFA v/v) over 30 mins at 1.5 mL min^−1 at ambient temperature with detection by both UV absorption at 210 nm and ionization using a Waters 3100 mass detector (ESI±mode). Peptide fragments deriving from enzymatic hydrolysis are identified by molecular weight, allowing location of the site of cleavage. Analytical RP-HPLC method: Agilent Polaris C8-A column (4.6×100 mm, 3 micron) elutes with a linear binary gradient of 10-90% MeCN (0.1% TFA v/v) in water (0.1% TFA v/v) over either 10 or 15 mins at 1.5 mL min^−1 at 40° C. with detection by UV absorption at 210 nm. Manual integration (AUC) allows estimation of remaining intact peptide over the time course of the experiment.

[2] = as above; details: recombinant α-chymotrypsin in assay buffer, pH 7.8
Procedure: as §2, §3, §4

[3] = molecular target: porcine pancreatic trypsin (Sus scrofa, UniProt P00761); assay: Proteolytic resistance to trypsin (% remaining intact peptide, RP-HPLC AUC); assay type: in vitro ADME; details: t = 0; 37° C., pH 7.8
Sequence of porcine pancreatic trypsin (P00761 9-231): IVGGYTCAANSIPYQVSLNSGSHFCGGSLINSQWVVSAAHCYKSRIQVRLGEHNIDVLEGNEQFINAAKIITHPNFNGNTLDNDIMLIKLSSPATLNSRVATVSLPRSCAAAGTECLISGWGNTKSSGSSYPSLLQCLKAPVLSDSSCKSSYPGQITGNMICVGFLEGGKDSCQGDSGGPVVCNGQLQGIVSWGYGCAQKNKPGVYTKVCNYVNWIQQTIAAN
Procedure: Trypsin: Lyophilized porcine pancreatic trypsin (Sigma: T1426) was reconstituted to afford a solution of 100 μg/mL (˜300 units/mL) in assay buffer (50 mM Tris, 10 mM CaCl2), 150 mM NaCl, 1 mM HCl, adjusted to pH 7.8) to give the enzyme stock solution. […] Ratio enzyme (units):peptide (μmoles) ˜1:11. […] Ratio enzyme (units):peptide (μ moles) ˜1.2:1.
Lyophilized porcine pancreatic trypsin (Sigma: T7409) was reconstituted to 200 μg/mL (˜300 units/mL) in assay buffer (50 mM Tris, 10 mM CaCl2), 150 mM NaCl, 1 mM HCl, adjusted to pH 7.8) to give the enzyme stock solution. […] 15 μL aliquots (˜15 μg initial peptide) of the peptide-enzyme mixture were periodically withdrawn (t=0, 30 mins, 1 hr, 2 hr, 4 hr, 8 hr, 24 hr) and quenched immediately by addition to an equal volume (15 μL) of 5% TFA (v/v) in 1:1 water/acetonitrile to arrest proteolytic activity. 20 μL aliquots (˜10 μg initial peptide) were analysed by LC/MS and/or analytical RP-HPLC as follows: LC/MS method: Agilent Polaris C8-A column (4.6×100 mm, 3 micron) eluted with a linear binary gradient of 10-90% MeCN (0.1% TFA v/v) in water (0.1% TFA v/v) over 30 mins at 1.5 mL min^−1 at ambient temperature with detection by both UV absorption at 210 nm and ionization using a Waters 3100 mass detector (ESI^+ mode). Peptide fragments deriving from enzymatic hydrolysis were identified by molecular weight, allowing location of the site of cleavage. Analytical RP-HPLC method: Agilent Polaris C8-A column (4.6×100 mm, 3 micron) eluted with a linear binary gradient of 10-90% MeCN (0.1% TFA v/v) in water (0.1% TFA v/v) over either 10 or 15 mins at 1.5 mL min^−1 at 40° C. with detection by UV absorption at 210 nm. Manual integration (AUC) allowed estimation of remaining intact peptide over the time course of the experiment.
Lyophilized porcine pancreatic trypsin (Sigma: T7409) was reconstituted to 200 μg/mL (˜300 units/mL) in assay buffer (50 mM Tris, 10 mM CaCl2), 150 mM NaCl, 1 mM HCl, adjusted to pH 7.8) to give the enzyme stock solution. […] 25 μL aliquots (˜17 μg initial peptide) of the peptide-enzyme mixture were periodically withdrawn (t=0, 30 mins, 1 hr, 2 hr, 4 hr, 8 hr, 24 hr) and quenched immediately by addition to an equal volume (25 μL) of 5% TFA (v/v) in 1:1 water/acetonitrile to arrest proteolytic activity. 25 μL aliquots (˜8 μg initial peptide) were analysed by LC/MS and/or analytical RP-HPLC as follows: LC/MS method: Agilent Polaris C8-A column (4.6×100 mm, 3 micron) eluted with a linear binary gradient of 10-90% MeCN (0.1% TFA v/v) in water (0.1% TFA v/v) over 30 mins at 1.5 mL min^−1 at ambient temperature with detection by both UV absorption at 210 nm and ionization using a Waters 3100 mass detector (ESI^+ mode). Peptide fragments deriving from enzymatic hydrolysis were identified by molecular weight, allowing location of the site of cleavage. Analytical RP-HPLC method: Agilent Polaris C8-A column (4.6×100 mm, 3 micron) eluted with a linear binary gradient of 10-90% MeCN (0.1% TFA v/v) in water (0.1% TFA v/v) over either 10 or 15 mins at 1.5 mL min^−1 at 40° C. with detection by UV absorption at 210 nm. Manual integration (AUC) allowed estimation of remaining intact peptide over the time course of the experiment.

[4] = molecular target: T1, porcine pancreatic pepsin (Sus scrofa, UniProt P00791); assay: Proteolytic resistance to pepsin (% remaining intact peptide, RP-HPLC AUC); assay type: in vitro ADME; details: t = 0; 37° C., pH 2.0
T1 construct: purchased Sigma P7012
T1 sequence (P00791 60-385): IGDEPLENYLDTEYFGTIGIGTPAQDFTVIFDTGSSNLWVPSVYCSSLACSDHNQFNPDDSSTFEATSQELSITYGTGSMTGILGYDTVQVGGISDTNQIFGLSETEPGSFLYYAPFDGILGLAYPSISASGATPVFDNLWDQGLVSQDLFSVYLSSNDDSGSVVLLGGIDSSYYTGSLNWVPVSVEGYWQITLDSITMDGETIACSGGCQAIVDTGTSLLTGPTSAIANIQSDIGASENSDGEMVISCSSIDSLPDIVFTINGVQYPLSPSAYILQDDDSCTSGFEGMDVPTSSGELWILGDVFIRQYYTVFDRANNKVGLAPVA
Procedure: Pepsin: Lyophilized porcine pancreatic pepsin (Sigma: P7012) was reconstituted to afford a solution of 200 μg/mL (˜500 units/mL) in assay buffer (0.1 M HCl, pH 2.0) to give the enzyme stock solution. […] Ratio enzyme (units):peptide (moles) ˜1:6. […] Ratio enzyme (units):peptide (μmoles) ˜2:1.
Lyophilized porcine pancreatic pepsin (Sigma: P7012) was reconstituted to […] (˜500 units/mL) in assay buffer ([…], pH 2.0) to give the enzyme stock solution.

recombinant Neprilysin = molecular target: T2, recombinant Neprilysin (Homo sapiens, UniProt P08473); assay: Proteolytic resistance to neprilysin (% remaining peptide, RP-HPLC AUC); assay type: in vitro ADME; details: t = 0 (baseline); 37° C., pH 8.3; enzyme:peptide ~1:33 for non-lipidated, ~1:2.5 for lipidated peptides
T2 construct: purchased R&D Systems 1182-ZNC-010
T2 sequence (P08473 whole entry): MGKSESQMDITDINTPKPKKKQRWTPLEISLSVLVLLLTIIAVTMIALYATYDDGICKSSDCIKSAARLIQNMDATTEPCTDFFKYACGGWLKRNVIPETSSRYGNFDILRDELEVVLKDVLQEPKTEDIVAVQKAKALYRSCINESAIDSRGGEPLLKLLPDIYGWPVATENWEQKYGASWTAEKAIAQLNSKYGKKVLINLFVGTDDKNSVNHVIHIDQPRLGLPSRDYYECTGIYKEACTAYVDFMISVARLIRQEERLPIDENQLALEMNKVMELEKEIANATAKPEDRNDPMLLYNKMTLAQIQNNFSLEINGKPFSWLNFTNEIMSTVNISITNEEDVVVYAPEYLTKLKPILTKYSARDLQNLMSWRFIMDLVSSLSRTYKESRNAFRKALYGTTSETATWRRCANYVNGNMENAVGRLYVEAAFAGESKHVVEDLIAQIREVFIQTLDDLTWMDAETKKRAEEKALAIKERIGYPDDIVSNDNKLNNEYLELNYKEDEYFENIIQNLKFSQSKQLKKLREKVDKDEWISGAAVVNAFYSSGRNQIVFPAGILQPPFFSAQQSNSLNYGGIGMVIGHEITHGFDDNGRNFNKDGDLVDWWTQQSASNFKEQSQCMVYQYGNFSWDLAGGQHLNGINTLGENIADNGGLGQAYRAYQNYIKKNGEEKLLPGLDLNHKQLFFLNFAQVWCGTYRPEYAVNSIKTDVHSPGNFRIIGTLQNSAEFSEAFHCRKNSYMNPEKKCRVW
Procedure: Ratio enzyme (units):peptide (moles) ˜1:33. […] Ratio enzyme (units):peptide (moles) ˜1:2.5.
15 μL aliquots (˜15 ng initial peptide) of the peptide-enzyme mixture were periodically withdrawn (t=0, 30 mins, 1 hr, 2 hr, 4 hr, 8 hr, 24 hr) and quenched immediately by addition to an equal volume (15 μL) of 5% TFA (v/v) in 1:1 water/acetonitrile to arrest proteolytic activity. 20 μL aliquots (˜10 ng initial peptide) were analyzed by LC/MS and/or analytical RP-HPLC as follows: LC/MS method: Agilent Polaris C8-A column (4.6×100 mm, 3 micron) eluted with a linear binary gradient of 10-90% MeCN (0.1% TFA v/v) in water (0.1% TFA v/v) over 30 mins at 1.5 mL min-1 at ambient temperature with detection by both UV absorption at 210 nm and ionization using a Waters 3100 mass detector (ESI+ mode). Peptide fragments deriving from enzymatic hydrolysis were identified by molecular weight, allowing location of the site of cleavage. Analytical RP-HPLC method: Agilent Polaris C8-A column (4.6×100 mm, 3 micron) eluted with a linear binary gradient of 10-90% MeCN (0.1% TFA v/v) in water (0.1% TFA v/v) over either 10 or 15 mins at 1.5 mL min^−1 at 40° C. with detection by UV absorption at 210 nm. Manual integration (AUC) allowed estimation of remaining intact peptide over the time course of the experiment.
25 μL aliquots (˜6 μg initial peptide) were analyzed by LC/MS and/or analytical RP-HPLC as follows: LC/MS method: Agilent Polaris C8-A column (4.6×100 mm, 3 micron) eluted with a linear binary gradient of 10-90% MeCN (0.1% TFA v/v) in water (0.1% TFA v/v) over 30 mins at 1.5 mL min^−1 at ambient temperature with detection by both UV absorption at 210 nm and ionization using a Waters 3100 mass detector (ESI^+ mode). Peptide fragments deriving from enzymatic hydrolysis were identified by molecular weight, allowing location of the site of cleavage. Analytical RP-HPLC method: Agilent Polaris C8-A column (4.6×100 mm, 3 micron) eluted with a linear binary gradient of 10-90% MeCN (0.1% TFA v/v) in water (0.1% TFA v/v) over either 10 or 15 mins at 1.5 mL min^−1 at 40° C. with detection by UV absorption at 210 nm. Manual integration (AUC) allowed estimation of remaining intact peptide over the time course of the experiment.

[5] = Proteolytic resistance to fasted-state simulated intestinal fluid (FASSIF/Pancreatin); assay type: in vitro ADME; details: 37° C., read-out: Percentage remaining intact peptide (AUC by RP-HPLC) upon incubation with fasted-state simulated intestinal fluid (FASSIF/P)
Procedure: (§1) A fresh suspension of FASSIF/P (Fasted-State Simulated Intestinal Fluid+USP Pancreatin®) was prepared according to that described by Galia, Nicolaides, Hörter, Lobenberg, Reppas and Dressman: Pharm. Res. 15 (1998) 698-705. The resulting preparation is proteolytically equivalent to ˜375 units/mL (375 kU/L) and was used immediately without storage. Peptides for evaluation (1.0 mg, ˜250 nmoles) were initially dissolved in pre-warmed FASSIF without Pancreatin® (200 μL) to which was added pre-warmed fresh FASSIF/Pancreatin® (100 μL) to initiate potential digestion. Following momentary vortexing of the Eppendorf reaction tube the mixture was incubated at 37° C. in a thermostatic waterbath for the duration of the experiment. 25 μL aliquots of the co-incubated peptide-enzyme mixture were periodically withdrawn (t=0, 5 m, 10 m, 15 m, 30 m, 1 h, 2 h) and quenched immediately by addition to a solution of 10% TFA in 1:1 water/acetonitrile (75 μL) to arrest proteolytic activity.

[6] = test system: FASSIF/P (Fasted-State Simulated Intestinal Fluid+USP Pancreatin®); assay: as above; assay type: in vitro ADME; details: t = 0; 37° C.
Procedure: as §1

SMILES | Percentage remaining intact peptide (AUC by RP-HPLC) upon incubation with α-chymotrypsin [1] | remaining at 0.5 h [2] | remaining at 1 h [2] | remaining at 2 h [2] | remaining at 4 h [2] | remaining at 8 h [2] | remaining at 24 h [2] | Percentage remaining intact peptide (AUC by RP-HPLC) upon incubation with trypsin [3] | Percentage remaining intact peptide (AUC by RP-HPLC) upon incubation with pepsin [4] | Percentage remaining peptide (AUC at specified time-point by RP-HPLC) upon incubation with neprilysin, t = 0 (recombinant Neprilysin) | remaining at 5 min, […] ([5]; t = 5 m) | remaining at 10 min, […] ([5]; t = 10 m) | remaining at 0.25 h, […] ([5]; t = 15 m) | remaining at 0.5 h, […] ([5]; t = 30 m) | remaining at 1 h, […] ([5]; t = 1 h) | remaining at 2 h, […] ([5]; t = 2 h) | Percentage remaining intact peptide (AUC by RP-HPLC) upon incubation with fasted-state simulated intestinal fluid (FASSIF/P) [6]
CC[C@H](C)[C@H](NC(=O)[C@](C)(Cc1ccccc1)NC(=O)[C@H](CCC(=O)O)NC(=O)[C@](C)(CCCCN)NC(=O)[C@H](C)NC(=O)[C@H](C)NC(=O)[C@H](CCC(=O)O)NC(=O)CNC(=O)[C@H](CCC(=O)O)NC(=O)[C@H](CC(C)C)NC(=O)[C@](C)(Cc1ccccc1)NC(=O)[C@H](CO)NC(=O)[C@](C)(CO)NC(=O)[C@@H](NC(=O)[C@H](CC(=O)O)NC(=O)[C@H](CO)NC(=O)[C@@H](NC(=O)[C@](C)(Cc1ccccc1)NC(=O)[C@H](CO)NC(=O)CNC(=O)[C@H](CCC(=O)O)NC(=O)C(C)(C)NC(=O)[C@@H](N)Cc1c[nH]cn1)[C@@H](C)O)C(C)C)C(=O)N[C@@H](C)C(=O)N[C@@](C)(Cc1ccccc1)C(=O)N[C@H](C(=O)N[C@H](C(=O)N[C@@](C)(CCCCN)C(=O)NCC(=O)NCC(N)=O)C(C)C)C(C)C [compound 17] | 100% | 91.6% | 87.2% | 86.3% | 86.6% | 87.7% | 82.1% | 100% | 100% | 100% |  |  |  |  |  |  | 
CC[C@H](C)[C@H](NC(=O)[C@H](Cc1ccccc1)NC(=O)[C@H](CCC(=O)O)NC(=O)[C@H](CCCCNC(=O)COCCOCCNC(=O)COCCOCCNC(=O)CC[C@H](NC(=O)CCCCCCCCCCCCCCCCC(=O)O)C(=O)O)NC(=O)[C@H](C)NC(=O)[C@H](C)NC(=O)[C@H](CCC(=O)O)NC(=O)CNC(=O)[C@H](CCC(=O)O)NC(=O)[C@H](CC(C)C)NC(=O)[C@](C)(Cc1ccccc1)NC(=O)[C@H](CO)NC(=O)[C@](C)(CO)NC(=O)[C@@H](NC(=O)[C@H](CC(=O)O)NC(=O)[C@H](CO)NC(=O)[C@@H](NC(=O)[C@](C)(Cc1ccccc1)NC(=O)[C@H](CO)NC(=O)CNC(=O)[C@H](CCC(=O)O)NC(=O)C(C)(C)NC(=O)[C@@H](N)Cc1c[nH]cn1)[C@@H](C)O)C(C)C)C(=O)N[C@@H](C)C(=O)N[C@@](C)(Cc1ccccc1)C(=O)N[C@H](C(=O)N[C@H](C(=O)N[C@@](C)(CCCCN)C(=O)NCC(=O)NCC(N)=O)C(C)C)C(C)C [compound 48] | 100% | 97.8% | 94.6% | 90.9% | 88.8% | 89.4% | 86.4% | 100.0% | 100% | 100% |  |  |  |  |  |  | 
CC[C@H](C)[C@H](NC(=O)[C@H](Cc1ccccc1)NC(=O)[C@H](CCC(=O)O)NC(=O)[C@](C)(CCCCN)NC(=O)[C@H](C)NC(=O)[C@H](C)NC(=O)[C@H](CCC(=O)O)NC(=O)CNC(=O)[C@H](CCC(=O)O)NC(=O)[C@H](CC(C)C)NC(=O)[C@](C)(Cc1ccccc1)NC(=O)[C@H](CO)NC(=O)[C@](C)(CO)NC(=O)[C@@H](NC(=O)[C@H](CC(=O)O)NC(=O)[C@H](CO)NC(=O)[C@@H](NC(=O)[C@](C)(Cc1ccccc1)NC(=O)[C@H](CO)NC(=O)CNC(=O)[C@H](CCC(=O)O)NC(=O)C(C)(C)NC(=O)[C@@H](N)Cc1c[nH]cn1)[C@@H](C)O)C(C)C)C(=O)N[C@@H](CCCCNC(=O)COCCOCCNC(=O)COCCOCCNC(=O)CC[C@H](NC(=O)CCCCCCCCCCCCCCCCC(=O)O)C(=O)O)C(=O)N[C@@H](Cc1c[nH]c2ccccc12)C(=O)N[C@H](C(=O)N[C@H](C(=O)N[C@@H](CCC(=O)O)C(=O)NCC(=O)NCC(N)=O)C(C)C)C(C)C [compound 68] (H-H[Aib]EGS[αMeF]TSDV[αMeS]S[αMeF]LEGEAA[αMeK]EFIK([AEEA-AEEA-γGlu-C18 diacid])WVVEGG-NH2; N-terminus assumed) |  |  |  |  |  |  |  | 100.0% | 100% | 100% |  |  |  |  |  |  | 
CCCCCCCCCCCC(=O)N[C@@H](CCC(=O)NCCOCCOCC(=O)NCCOCCOCC(=O)NCCCC[C@H](NC(=O)[C@H](C)NC(=O)[C@@H](NC(=O)[C@H](Cc1ccc(OC)cc1)NC(=O)[C@H](CCC(=O)O)NC(=O)[C@](C)(CCCCN)NC(=O)[C@H](C)NC(=O)[C@H](C)NC(=O)[C@H](CCC(=O)O)NC(=O)CNC(=O)[C@H](CCC(=O)O)NC(=O)[C@H](CC(C)C)NC(=O)[C@H](CCCCNC(=O)COCCOCCNC(=O)COCCOCCNC(=O)CC[C@H](NC(=O)CCCCCCCCCCC)C(=O)O)NC(=O)[C@H](CO)NC(=O)[C@](C)(CO)NC(=O)[C@@H](NC(=O)[C@H](CC(=O)O)NC(=O)[C@H](CO)NC(=O)[C@@H](NC(=O)[C@](C)(Cc1ccccc1)NC(=O)[C@H](CO)NC(=O)CNC(=O)[C@H](CCC(=O)O)NC(=O)C(C)(C)NC(=O)[C@@H](N)Cc1c[nH]cn1)[C@@H](C)O)C(C)C)[C@@H](C)CC)C(=O)N[C@H](C(=O)N[C@H](C(=O)N[C@@H](CCC(=O)O)C(=O)NCC(=O)NCC(N)=O)C(C)C)C(C)C)C(=O)O [compound 406] (H-H[Aib]EGS[αMeF]TSDV[αMeS]SK([AEEA-AEEA-γGlu-Lauroyl])LEGEAA[αMeK]EY(Me)IAK([AEEA-AEEA-γGlu-Lauroyl])VVEGG-NH2; N-terminus assumed) |  |  |  |  |  |  |  |  |  |  | 93.9% | 85.7% | 75.9% | 56.1% | 33.2% | 7.7% | 100%
CCCCCCCCCCCCCCCC(=O)NCCCC[C@H](NC(=O)CNC(=O)CNC(=O)[C@](C)(CCCCN)NC(=O)[C@@H](NC(=O)[C@@H](NC(=O)[C@](C)(Cc1ccccc1)NC(=O)[C@H](C)NC(=O)[C@@H](NC(=O)[C@](C)(Cc1ccccc1)NC(=O)[C@H](CCC(=O)O)NC(=O)[C@](C)(CCCCN)NC(=O)[C@H](C)NC(=O)[C@H](C)NC(=O)[C@H](CCC(N)=O)NC(=O)CNC(=O)[C@H](CCC(=O)O)NC(=O)[C@H](CC(C)C)NC(=O)[C@](C)(Cc1ccccc1)NC(=O)[C@H](CO)NC(=O)[C@H](CO)NC(=O)[C@@H](NC(=O)[C@H](CC(=O)O)NC(=O)[C@H](CO)NC(=O)[C@@H](NC(=O)[C@](C)(Cc1ccccc1)NC(=O)[C@H](CO)NC(=O)CNC(=O)[C@H](CCC(=O)O)NC(=O)C(C)(C)NC(=O)[C@@H](N)Cc1c[nH]cn1)[C@@H](C)O)C(C)C)[C@@H](C)CC)C(C)C)C(C)C)C(N)=O [compound 489] (H-H[Aib]EGS[αMeF]TSDVSS[αMeF]LEGQAA[αMeK]E[αMeF]IA[αMeF]VV[αMeK]GGK(Palmitoyl)-NH2) |  |  |  |  |  |  |  | 100% | 100% | 100% |  |  |  |  |  |  | 
